Compound: CC(C)C[C@H](NC(=O)[C@H](CCc1ccccc1)NC(=O)CN1CCOCC1)C(=O)N[C@@H](Cc1ccccc1)C(=O)N[C@@H](CC(C)C)C(=O)[C@@]1(C)CO1 [Carfilzomib] + CS(=O)(=O)N1CCN(Cc2cc3nc(-c4cccc5[nH]ncc45)nc(N4CCOCC4)c3s2)CC1 [Pictilisib] (partner 1 µM)
Assay: relative viability (nuclei count vs DMSO), 5 days (fraction); higher = more cells survive
Conditions: first compound 0.1 µM
How it was run: (§1)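 After 5 days of treatment, lung cancer cells in 1536-well plates were fixed and stained in a single step (final 0.05% Triton X-100, 1% formaldehyde, 1 ug/ml Hoechst) and their nuclei counted on 4× images. Treatment had been applied by pin tool the day after seeding as one drug alone or as a fixed anchor-drug dose with five library-drug doses (not always all listed) in √10 steps. Relative viability is the nuclei count of treated wells divided by that of vehicle wells, and values are medians of duplicate plates.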

Cell Line | relative viability
EPLC-272H | 0.0877
H3255 | 0.177
HARA | 0.0598
HCC-15 | 0.156
HCC-44 | 0.166
HCC-78 | 0.117
HCC-366 | 0.0504
HCC-827 | 0.487
HOP-62 | 0.0695
IA-LM | 0.0095
LC-2-ad | 0.16
LCLC-97TM1 | 0.116
LCLC-103H | 0.347
LK-2 | 0.251
LOU-NH91 | 0.255
NCI-H358 | 0.135
NCI-H441 | 0.141
NCI-H1299 | 0.0334
NCI-H1395 | 0.525
NCI-H1703 | 0.144
NCI-H1944 | 0.247
NCI-H2170 | 0.163
SK-MES-1 | 0.174

Compound: O=C(c1cc(Cc2n[nH]c(=O)c3ccccc23)ccc1F)N1CCN(C(=O)C2CC2)CC1 [Olaparib] + Cc1nc(Nc2ncc(C(=O)Nc3c(C)cccc3Cl)s2)cc(N2CCN(CCO)CC2)n1 [Dasatinib] (partner 0.075 µM)
Assay: as above
Conditions: first compound 0.08 µM
How it was run: as §1

Cell Line | relative viability
201T | 0.576
A-427 | 0.793
ABC-1 | 0.639
CAL-12T | 0.597
COR-L23 | 0.539
COR-L 105 | 0.34
ChaGo-K-1 | 0.576
EKVX | 0.271
EMC-BAC-2 | 0.365
EPLC-272H | 0.43
H3255 | 0.401
HARA | 0.36
HCC-15 | 0.659
HCC-78 | 0.451
HCC-366 | 0.484
HCC-827 | 0.27

Cell Line | relative viability
HOP-62 | 0.691
LC-2-ad | 0.99
LCLC-97TM1 | 0.871
LCLC-103H | 0.61
LK-2 | 0.27
LOU-NH91 | 0.6
NCI-H358 | 0.152
NCI-H441 | 0.818
NCI-H522 | 0.913
NCI-H1395 | 0.465
NCI-H1623 | 0.568
NCI-H1944 | 0.177
NCI-H2170 | 0.471
NCI-H2342 | 0.293
SK-MES-1 | 0.41
SW 900 | 0.57

Same assay, conditions: first compound 0.253 µM

Cell Line | relative viability
201T | 0.558
A-427 | 0.691
ABC-1 | 0.609
BEN | 0.32
CAL-12T | 0.281
COR-L23 | 0.437
COR-L 105 | 0.403
ChaGo-K-1 | 0.577
EKVX | 0.406
EMC-BAC-2 | 0.382
EPLC-272H | 0.293
H3255 | 0.274
HARA | 0.286
HCC-15 | 0.584
HCC-78 | 0.31
HCC-366 | 0.503
HCC-827 | 0.315

Cell Line | relative viability
HOP-62 | 0.563
LC-2-ad | 0.454
LCLC-97TM1 | 0.789
LCLC-103H | 0.49
LK-2 | 0.329
LOU-NH91 | 0.473
NCI-H358 | 0.181
NCI-H441 | 0.542
NCI-H522 | 0.884
NCI-H1395 | 0.358
NCI-H1623 | 0.504
NCI-H1944 | 0.215
NCI-H2170 | 0.629
NCI-H2342 | 0.262
SK-MES-1 | 0.323
SW 900 | 0.815

Same assay, conditions: first compound 2.53 µM

Cell Line | relative viability
201T | 0.46
A-427 | 0.586
ABC-1 | 0.586
BEN | 0.325
CAL-12T | 0.363
COR-L23 | 0.314
COR-L 105 | 0.356
ChaGo-K-1 | 0.567
EKVX | 0.428
EMC-BAC-2 | 0.471
EPLC-272H | 0.414
H3255 | 0.491
HARA | 0.255
HCC-15 | 0.655
HCC-78 | 0.426
HCC-366 | 0.498
HCC-827 | 0.387

Cell Line | relative viability
HOP-62 | 0.579
LC-2-ad | 0.472
LCLC-97TM1 | 0.857
LCLC-103H | 0.445
LK-2 | 0.271
LOU-NH91 | 0.525
NCI-H358 | 0.167
NCI-H441 | 0.651
NCI-H522 | 0.846
NCI-H1395 | 0.39
NCI-H1623 | 0.6
NCI-H1944 | 0.178
NCI-H2170 | 0.47
NCI-H2342 | 0.312
SK-MES-1 | 0.431
SW 900 | 0.624

Same assay, conditions: first compound 8 µM

Cell Line | relative viability
201T | 0.501
A-427 | 0.54
ABC-1 | 0.676
BEN | 0.35
CAL-12T | 0.283
COR-L23 | 0.23
COR-L 105 | 0.288
ChaGo-K-1 | 0.445
EKVX | 0.599
EMC-BAC-2 | 0.338
EPLC-272H | 0.338
H3255 | 0.425
HARA | 0.237
HCC-15 | 0.631
HCC-78 | 0.331
HCC-366 | 0.253
HCC-827 | 0.281

Cell Line | relative viability
HOP-62 | 0.492
LC-2-ad | 0.491
LCLC-97TM1 | 0.776
LCLC-103H | 0.532
LK-2 | 0.225
LOU-NH91 | 0.589
NCI-H358 | 0.146
NCI-H441 | 0.589
NCI-H522 | 0.782
NCI-H1395 | 0.419
NCI-H1623 | 0.494
NCI-H1944 | 0.149
NCI-H2170 | 0.638
NCI-H2342 | 0.293
SK-MES-1 | 0.228
SW 900 | 0.615

Source: the supplement of paper PMC10307832
